According to the OPERA property sets (Mansouri et al. 2018):
Converted amounts (≈) assume the structure as drawn. Where a SMILES comes first, the peptide text is derived from it.

conditions: not given

SMILES | logP | solubility [mM]
O=[N+]([O-])c1ccc2c(c1)CCN2 | 2.07 | 
CCOC(=O)C1=C(C)NC(C)=C(C(=O)OC)C1c1cccc([N+](=O)[O-])c1 (centres undefined) | 2.88 | 
OCCOCCOCCO | -1.75 | 
Cc1cn([C@H]2C=C[C@@H](CO)O2)c(=O)[nH]c1=S | 0.09 | 
Cc1cn(C2CC(O)C(CO)O2)c(=O)[nH]c1=S (centres undefined) | -0.07 | 
OCCC(F)(F)C(F)(F)C(F)(F)C(F)(F)C(F)(F)C(F)(F)F | 4.54 | 
C=CCOc1ccccc1OCC(CNC(C)C)OC(=O)C(C)C (centres undefined) | 3.77 | 
Nc1nc(=O)n([C@@H]2CS[C@H](CO)O2)cc1F | -0.43 | 
CCCCOCCOCCCC | 2.48 | 
COc1ccc(C(OC(C)=O)C(Cl)(Cl)Cl)cc1 (centres undefined) | 3.72 | 
CC(O)(C(=O)O)c1ccccc1 (centres undefined) | 0.8 | 
N#CCCOc1cccc2ccccc12 | 2.8 | 
Clc1ccc(Cl)nn1 | 0.7 | 
CCn1ccc(=O)c(O)c1 | -0.4 | 
COc1c(Cl)cc(Cl)c(Cl)c1Cl | 4.75 | 
CCCOC(=O)CCC(=O)OCCC | 2.16 | 
OCCN1CC=C(c2ccccc2)CC1 | 2 | 
CC1(CCl)C2CC(Cl)(Cl)C1(C(Cl)Cl)CC2(Cl)Cl (centres undefined) | 5.49 | 
NC(N)=Nc1nc(CSCCC(N)=NS(N)(=O)=O)cs1 | -0.64 | 
CCCCOC(=O)c1ccccc1O | 4.63 | 
C[C@@H]1CC[C@H](C)O1 | 1.22 | 
N#Cc1c(Cl)c(Cl)c(Cl)c(C#N)c1Cl | 3.05 | 
O=C(O)CCCCc1ccccc1 | 2.94 | 

SMILES | logP | solubility [mM]
NC(=O)CC[C@H](NS(=O)(=O)c1ccccc1)C(=O)O | 0.33 | 
Nc1ccc2nc(S(N)(=O)=O)sc2c1 | 0.52 | 
CNCCc1ccccn1 | 0.68 | 
Sc1nc2ccccc2s1 | 2.42 | 
Clc1ccc(Cl)c(-c2ccccc2Cl)c1 | 5.48 | 
CC1CCC2C(C)C(OC3OC(C(=O)O)C(O)C(O)C3O)OC3OC4(C)CCC1C32OO4 (centres undefined) | 1.08 | 
CC(=O)N[C@@H](Cc1ccccc1)C(=O)O | 0.93 | 
O=c1ccc2cc3ccoc3cc2o1 | 1.67 | 
Cc1cccc(O[Si]23OCCN(CCO2)CCO3)c1 | 0.15 | 
COc1cc(CC(=O)O)ccc1O | 0.33 | 
COc1ccc(OCCN(C)C)cc1 | 1.23 | 
COc1ccc(-c2cc(C#N)c(Cl)nc2C)cc1OC | 2.86 | 
CCCCOCCNc1ccccc1C(N)=O | 2.27 | 
c1ccc2c(c1)Cc1cc3ccccc3cc1-2 | 5.77 | 
CC(C)c1ccc(C=[N+]([O-])c2ccccc2)cc1 | 3.37 | 
O=[N+]([O-])c1cc(C2CCCCC2)c(O)c([N+](=O)[O-])c1 | 4.12 | 
O=C(O)CCCCn1nc2ccccc2n1 | 0.94 | 
C1=CCC=C1 |  | 27.2 (≈ 1800 µg/mL)
CC[n+]1c(-c2ccccc2)c2cc(N)ccc2c2ccc(N)cc21.[Br-] |  | 50.7
O=C(OCCO)c1ccccc1 | 1.12 | 
COc1ccc(C(=O)CCCC(=O)O)cc1Cl | 2.17 | 
N#CCCN(N)c1nc2cc(C(F)(F)F)ccc2o1 | 1.72 | 
CC(C)c1ccc(Br)c(C(C)C)c1NC(=O)CN(CC(=O)O)CC(=O)O | 0.2 | 

SMILES | logP | solubility [mM]
Cc1cc(C)cc(NCc2cnc3nc(N)nc(N)c3c2C)c1 | 2.11 | 
CC(=O)N[C@@H](CC(C)C)C(=O)N[C@H](C(=O)N[C@@H](CC(C)C)C(N)=O)[C@@H](C)O (Ac-Leu-Thr-Leu-NH2) | 0.24 | 
Oc1ncnc2[nH]ncc12 | -0.55 | 
Oc1cccc(N=C=S)c1 | 3.23 | 
CC(C)COCCO | 0.75 | 
CC(CCC(=O)NCC(=O)O)C1CCC2C3C(O)CC4CC(O)CCC4(C)C3CCC12C (centres undefined) | 2.12 | 
Cn1cccc(O)c1=O | -0.4 | 
C=CC(=O)NCCc1cnc[nH]1 | -0.21 | 
CN(C)c1ccc2cc3ccc(N(C)C)cc3nc2c1 |  | 2.64 (≈ 700 µg/mL)
CCCCNC(=S)NCCCC | 2.75 | 
CCCCOc1ccc([N+](=O)[O-])cc1NC(C)=O | 2.26 | 
CC1(C)[C@H](/C=C(\Cl)C(F)(F)F)[C@@H]1C(=O)O[C@H](C#N)c1cccc(Oc2ccccc2)c1 |  | 1.11e-05 (≈ 0.005 µg/mL)
CC(C)c1ccc2c(c1)CC[C@H]1[C@](C)(C(=O)O)CCC[C@]21C | 4.8 | 0.022 (≈ 6.6 µg/mL)
Cc1cc(Cl)ccc1OCC(=O)O | 3.25 | 
CCCCN(CC)N=O | 1.63 | 
Nc1cc([N+](=O)[O-])ccc1Cl | 2.23 | 
ClC1=C(Cl)C2(Cl)C(Cl)(Cl)C3CC(Cl)C1C3C2(Cl)Cl (centres undefined) | 6.09 | 
CC(=O)OCCOCn1cnc2cnc(N)nc21 | -0.61 | 
O=c1[nH]c(=O)n([C@H]2C[C@H](O)[C@@H](CO)O2)cc1I | -0.96 | 
NC(Cc1ccc(O)c(O)c1)C(=O)OCC1CCCCO1 (centres undefined) | 0.47 | 
N=C(N)NN=Cc1cccs1 | 0.98 | 
O=c1[nH][nH]c(=O)c2ccccc12 | 0.11 | 
Cn1cnc([N+](=O)[O-])c1I | 1 | 

SMILES | logP | solubility [mM]
COc1sc(C(=O)Nc2nn[nH]n2)c(OC(C)C)c1Br | 1.35 | 
Cc1cc(Cl)c(Cc2cc(Cl)ccc2Cl)cc1Cl | 7.48 | 
Nc1ccc2c(c1)Cc1cc([N+](=O)[O-])ccc1-2 | 3.06 | 
CCCCCCNC(=S)NC | 2.31 | 
N[C@@H](Cc1cnc[nH]1)C(=O)O | -3.32 | 
CCOCCn1cnc2c(=N)n(C)c(=O)[nH]c21 | -0.4 | 
NC(=O)c1cccc2ccccc12 | 1.88 | 
CCNc1ncc(-c2ccncc2)cc1C#N | 2.33 | 
C[Si](C)(C)O[Si](C)(C)O[Si](C)(C)O[Si](C)(C)C | 8.21 | 
CC(C)Oc1c(Br)c(Br)n(C)c1C(=O)Nc1nn[nH]n1 | 2.52 | 
COc1ccc2sc(C(=O)Nc3nnn[nH]3)c(OC(C)C)c2c1 | 1.78 | 
Cc1sc(C(=O)Nc2nnn[nH]2)c(OC(C)C)c1Br | 1.72 | 
CC(C)c1cccc(-c2ccccc2)c1 | 5.33 | 
CC(=O)Oc1ccc(N(C)C(=O)C(Cl)Cl)cc1 | 1.56 | 
Clc1ccc(Nc2cc3nc4ccccc4n(-c4ccc(Cl)cc4)c-3cc2=NCCCN2CCCCC2)cc1 | 8.18 | 
O=C(O)c1cc[n+]([O-])cc1 |  | 79.1 (≈ 11000 µg/mL)
OCc1ccc(F)cc1 | 1.36 | 
CC(=O)OC1CCC(C(C)(C)C)CC1 (centres undefined) | 4.8 | 
Cc1ccc(C)c(NCc2cnc3nc(N)nc(N)c3c2C)c1 | 2.29 | 
CC(C)(O)C(=O)Nc1ccc([N+](=O)[O-])cc1 | 1.61 | 
O=C(c1ccc(Cl)cc1)c1cc(F)ccc1O | 4.05 | 
CC(C)NCc1ccccc1 | 1.83 | 

same assay, conditions: 20 °C

SMILES | solubility [mM]
CC1=C(c2ccccc2)C(=O)N(C(C)(C)c2cc(Cl)cc(Cl)c2)CO1 | 0.000478 (≈ 0.18 µg/mL)
ClC(Br)Br | 12.5 (≈ 2600 µg/mL)
CCOC(C)(C)CC | 3.44 (≈ 400 µg/mL)
CCCCOCC1CO1 (centres undefined) | 154 (≈ 20000 µg/mL)
COP(=S)(OC)Oc1nc(Cl)c(Cl)cc1Cl | 0.0148 (≈ 4.76 µg/mL)
COCCO[Si](CCCl)(OCCOC)OCCOC | 78.9 (≈ 25000 µg/mL)
CN(C)C(=N)N | 18.6 (≈ 1620 µg/mL)

same assay, conditions: 22 °C

SMILES | solubility [mM]
CCCCC(CC)COC(=O)CCCCC(=O)OCC(CC)CCCC (centres undefined) | 0.0021 (≈ 0.78 µg/mL)

same assay, conditions: 22.0 °C

SMILES | log10 OH rate constant (cm³/molecule/s)
CC(C)CO[N+](=O)[O-] | -12

same assay, conditions: 23.0 °C

SMILES | log10 OH rate constant (cm³/molecule/s)
CCC(=O)C(O)CC (centres undefined) | -10.8
CC/C=C\CCO | -9.96
C=C1[C@H]2CC[C@@H]3[C@H]2C(C)(C)CCC[C@]13C | -10.3
CCC(=O)CO | -11.1
CC(=O)C(C)O (centres undefined) | -11

same assay, conditions: 24 °C

SMILES | solubility [mM]
N#CSCSc1nc2ccccc2s1 | 0.524 (≈ 125 µg/mL)
Sc1nc2ccccc2s1 | 0.658 (≈ 110 µg/mL)
CCCCN(CC)N=O | 92.2 (≈ 12000 µg/mL)
CCCN(CCC)N=O | 99.9 (≈ 13000 µg/mL)

same assay, conditions: 24.0 °C

SMILES | log10 OH rate constant (cm³/molecule/s)
Clc1ccccc1-c1ccccc1Cl | -11.7
c1ccc2cnccc2c1 | -11.1

same assay, conditions: 25 °C

SMILES | solubility [mM]
Cc1cccc(C)c1 | 1.52 (≈ 161 µg/mL)
Cc1ccccc1N | 155 (≈ 16600 µg/mL)
O=[N+]([O-])c1cccc2ccccc12 | 0.053 (≈ 9.18 µg/mL)
Nc1cc(Cl)cc(C(=O)O)c1Cl | 3.4 (≈ 700 µg/mL)
CCCCCCCCOP(=O)(Oc1ccccc1)Oc1ccccc1 | 0.000386 (≈ 0.14 µg/mL)
C=C(Cl)CCl | 19.4 (≈ 2150 µg/mL)
Oc1cc(Cl)cc(Cl)c1 | 27.6 (≈ 4500 µg/mL)
CC(N)=S | 2170 (≈ 163000 µg/mL)
CC(C)CCCCCOC(=O)c1ccccc1C(=O)OCCCCCC(C)C | 0.00023 (≈ 0.09 µg/mL)
Clc1ccc(Cl)c(-c2ccccc2Cl)c1 | 0.00155 (≈ 0.4 µg/mL)
FC(F)(Cl)Cl | 2.32 (≈ 280 µg/mL)
CCCCCCCCCCN | 3.5 (≈ 550 µg/mL)
Clc1ccccc1-c1ccccc1Cl | 0.00829 (≈ 1.85 µg/mL)
CC(C)CO[N+](=O)[O-] | 11.2 (≈ 1330 µg/mL)
CCCCC(CC)COC(=O)c1ccccc1C(=O)OCC(CC)CCCC (centres undefined) | 0.000108 (≈ 0.042 µg/mL)
NC(N)=O | 9070 (≈ 545000 µg/mL)
O=[N+]([O-])c1cc(Cl)ccc1Cl | 0.0729 (≈ 14 µg/mL)
O=C(O)CCCOc1cc(Cl)c(Cl)cc1Cl | 0.148 (≈ 42 µg/mL)
CCCCCCCCCl | 0.0329 (≈ 4.89 µg/mL)
Oc1ccccc1Cl | 87.9 (≈ 11300 µg/mL)
Clc1cc2ccccc2cc1Cl | 0.00044 (≈ 0.0867 µg/mL)
CCCCOCCOC(=O)COc1ccc(Cl)cc1Cl | 0.0374 (≈ 12 µg/mL)
O=CC=Cc1ccccc1 | 10.7 (≈ 1420 µg/mL)
C[Si](C)(C)O[Si](C)(C)O[Si](C)(C)O[Si](C)(C)C | 2.17e-05 (≈ 0.00674 µg/mL)
CCOC(=O)COc1ccc(Cl)cc1 | 3.8 (≈ 815 µg/mL)
Cc1c2ccccc2c(C)c2c1ccc1ccccc12 | 0.000152 (≈ 0.039 µg/mL)
CCN(N=O)C(N)=O | 111 (≈ 13000 µg/mL)

same assay, conditions: 25.0 °C

SMILES | log10 OH rate constant (cm³/molecule/s)
CI | -13.1
ClCBr | -13.1
FC(F)OC(Cl)C(F)(F)F (centres undefined) | -13.8
Clc1c(Cl)c(Cl)c2c(c1Cl)Oc1ccccc1O2 | -12.1
CCCN(CCC)C(=O)SCC | -10.5
c1ccc(Nc2ccccc2)cc1 | -9.71
CCCCCCCl | -11.4
CCNc1nc(Cl)nc(NC(C)(C)C)n1 | -11
C=CC1(C)CCC(O)O1 (centres undefined) | -10.1
CCNc1nc(Cl)nc(NCC)n1 | -11
FC(F)(F)C(F)(F)N(C(F)(F)C(F)(F)F)C(F)(F)C(F)(F)F | < -15.2
O=CC(F)(F)Cl | -12.1
Oc1cccc2ccccc12 | -9.26
CC1CCCO1 (centres undefined) | -10.7
C=C1CCC2(C(C)C)CC12 (centres undefined) | -9.93
O=CC(F)(F)F | -12.2

same assay, conditions: 27.0 °C

SMILES | log10 OH rate constant (cm³/molecule/s)
CC(=O)N(C)C | -10.9

same assay, conditions: 30 °C

SMILES | solubility [mM]
Nc1ccc([N+](=O)[O-])cc1 | 5.27 (≈ 728 µg/mL)
Nc1ccccc1[N+](=O)[O-] | 10.6 (≈ 1470 µg/mL)

same assay, conditions: pH 7.0

SMILES | logD
Cc1nn(-c2cc(NS(C)(=O)=O)c(Cl)cc2Cl)c(=O)n1C(F)F | 0.99
